Measurements: US20220125784A1, “METHODS AND COMPOUNDS FOR INHIBITION OF INACTIVATION OF VOLTAGE-GATED SODIUM CHANNELS” (SIMON FRASER UNIVERSITY, priority 2019, published 2022)
Entries after “also recorded” stand apart in the source; their conditions may differ.

Experiments:
[1] = molecular target: T1, WT Nav1.5-α subunits (Homo sapiens, UniProt Q14524); test: Whole-cell patch clamp, single voltage-pulse protocol (peak INa, conductance, fast inactivation) in transiently transfected HEK293 cells; assay type: cell-based; details: for Peak INa −20 mV: normalized peak INa, 37° C.; for Peak INa Slope: Hill curve slope; for IC50: Hill curve; for IC50 / effect on peak INa: single voltage-pulse protocol; for effect on fast inactivation kinetics: open-state voltages between −30 and +10 mV
T1 construct: expressed in transfected cells; host or cells: HEK293 (transient transfection)
T1 sequence (Q14524 whole entry): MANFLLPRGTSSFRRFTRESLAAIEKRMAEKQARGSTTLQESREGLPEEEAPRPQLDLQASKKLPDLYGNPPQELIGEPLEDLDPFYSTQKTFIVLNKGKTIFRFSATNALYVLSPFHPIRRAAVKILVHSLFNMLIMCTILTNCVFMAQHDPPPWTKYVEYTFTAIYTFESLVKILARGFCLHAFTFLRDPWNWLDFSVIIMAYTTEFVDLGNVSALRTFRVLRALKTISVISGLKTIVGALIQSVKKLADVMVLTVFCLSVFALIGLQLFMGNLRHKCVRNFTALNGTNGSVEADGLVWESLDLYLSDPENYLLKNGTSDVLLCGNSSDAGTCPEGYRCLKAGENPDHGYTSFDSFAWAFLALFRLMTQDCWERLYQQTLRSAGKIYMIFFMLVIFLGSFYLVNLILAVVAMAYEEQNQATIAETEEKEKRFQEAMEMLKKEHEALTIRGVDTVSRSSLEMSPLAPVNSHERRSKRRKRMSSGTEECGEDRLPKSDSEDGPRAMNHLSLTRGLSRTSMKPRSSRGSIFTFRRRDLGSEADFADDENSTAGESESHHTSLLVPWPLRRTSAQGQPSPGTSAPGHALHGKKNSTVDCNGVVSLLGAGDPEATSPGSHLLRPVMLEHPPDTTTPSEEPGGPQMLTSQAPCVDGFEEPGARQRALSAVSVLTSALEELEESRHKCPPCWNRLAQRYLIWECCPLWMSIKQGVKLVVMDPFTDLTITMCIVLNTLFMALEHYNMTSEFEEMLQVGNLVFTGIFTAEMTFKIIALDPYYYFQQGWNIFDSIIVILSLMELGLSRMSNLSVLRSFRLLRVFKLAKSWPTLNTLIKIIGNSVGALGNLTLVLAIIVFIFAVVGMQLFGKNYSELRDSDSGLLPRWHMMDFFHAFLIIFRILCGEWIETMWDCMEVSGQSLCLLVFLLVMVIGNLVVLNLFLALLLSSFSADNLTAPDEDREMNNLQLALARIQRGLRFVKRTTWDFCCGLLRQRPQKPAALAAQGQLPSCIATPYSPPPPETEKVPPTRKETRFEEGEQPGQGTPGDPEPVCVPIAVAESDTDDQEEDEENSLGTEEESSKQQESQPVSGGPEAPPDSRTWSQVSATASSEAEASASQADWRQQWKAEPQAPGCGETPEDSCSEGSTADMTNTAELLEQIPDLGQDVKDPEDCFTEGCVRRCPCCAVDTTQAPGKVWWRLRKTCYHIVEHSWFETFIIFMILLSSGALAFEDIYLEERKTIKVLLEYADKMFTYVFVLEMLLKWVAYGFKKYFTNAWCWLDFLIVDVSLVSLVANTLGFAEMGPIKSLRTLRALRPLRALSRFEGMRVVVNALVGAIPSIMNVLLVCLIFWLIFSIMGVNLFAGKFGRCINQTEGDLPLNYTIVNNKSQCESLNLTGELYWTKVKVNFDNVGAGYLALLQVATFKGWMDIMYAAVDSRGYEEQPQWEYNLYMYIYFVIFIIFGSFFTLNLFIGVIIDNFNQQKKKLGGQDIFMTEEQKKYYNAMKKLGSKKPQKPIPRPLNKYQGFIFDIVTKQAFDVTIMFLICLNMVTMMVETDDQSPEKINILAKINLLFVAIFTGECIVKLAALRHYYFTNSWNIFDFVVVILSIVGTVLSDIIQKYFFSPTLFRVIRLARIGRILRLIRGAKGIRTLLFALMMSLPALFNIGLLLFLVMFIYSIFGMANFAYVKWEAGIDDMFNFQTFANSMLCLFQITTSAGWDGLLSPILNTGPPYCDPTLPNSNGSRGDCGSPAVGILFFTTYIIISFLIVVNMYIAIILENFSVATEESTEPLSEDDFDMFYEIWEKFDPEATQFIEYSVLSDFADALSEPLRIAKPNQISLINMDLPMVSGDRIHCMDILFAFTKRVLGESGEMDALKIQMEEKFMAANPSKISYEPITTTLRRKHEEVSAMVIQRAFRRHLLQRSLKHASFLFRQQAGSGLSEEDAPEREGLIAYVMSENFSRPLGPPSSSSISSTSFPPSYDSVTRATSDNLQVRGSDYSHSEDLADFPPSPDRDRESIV
Procedure: (§1) In one set of studies, we used a whole-cell patch clamp technique with single voltage-pulse protocols (FIGS. 3A-B) to characterize compounds ZINC38767171, ZINC39699427, ZINC40014265, ZINC64470729, ZINC64470737 and ZINC64470745. Whole-cell patch clamp was performed in extracellular solution containing (in mM): 140 NaCl, 4 KCl, 2 CaCl2, 1 MgCl2, and 10 HEPES (pH 7.4 adjusted with CsOH). The intracellular pipettes were dipped in dental wax and thermally polished to attain a resistance of 1.0-1.5 MΩ. The intracellular solutions contained (in mM): 130 CsF, 10 NaCl, 10 HEPES, and 10 EGTA titrated to pH 7.4. The six compounds, ZINC38767171, ZINC39699427, ZINC40014265, ZINC64470729, ZINC64470737 and ZINC64470745, chosen for electrophysiology characterization, ordered from MolPort (Easy compound ordering services), were diluted to 10 μM, 50 μM, and 100 μM in extracellular solution for biophysical assessment of channel gating.
(§2) The six compounds were screened against wild type (WT) Nav1.5-α subunits at the optimal physiological temperature of 37° C. Human Embryonic Kidney (HEK293) cells were transfected with WT Nav1.5-α subunits (transient transfections). The α subunits were co-expressed with the β1 subunit and eGFP (enhanced green fluorescence protein) in a 2:1:2 ratio, respectively.
Conductance was measured by a protocol that depolarized the membrane from −100 mV to +80 mV in increments of +5 mV for 19 ms. Prior to the test pulse, channels were allowed to recover from fast inactivation at −130 mV for 197 ms. The tested compounds had no effect on the conductance midpoint (FIGS. 6A-F).
At voltages greater than −50 mV, the fast inactivation T values were calculated from the mono-exponential fit to the decay of sodium current.

[2] = molecular target: T1, WT Nav1.5-α subunits; test: Whole-cell patch clamp, use-dependence (slow inactivation) protocol at 6 Hz in transiently transfected HEK293 cells; assay type: cell-based; details: for UDI Block Slope: Hill curve slope; for IC50: Hill curve, use-dependence at 6 Hz, read-out: UDI Block IC50
Procedure: as §1, §2
Slow inactivation (SI) was indirectly determined by measuring use-dependence, which is a physiologically-relevant protocol. The protocol includes a series of 500 110 ms depolarizing pulses to 0 mV followed by a 55 ms-90 mV recovery pulse at a frequency 6 Hz. With repetitive depolarizations, Nav1.5 channels accumulate into slow inactivation.

| SMILES | % Block −20 mV ([1]; 10 μM) [%] | fast inactivation onset time constant FI +10 mV ([1]; 10 μM) [ms] | fast inactivation onset time constant FI −10 mV ([1]; 10 μM) [ms] | fast inactivation onset time constant FI −30 mV ([1]; 10 μM) [ms] | fast inactivation onset time constant FI −50 mV ([1]; 10 μM) [ms] | Peak INa −20 mV ([1]; 10 μM) | % Block −20 mV ([1]; 50 μM) [%] | fast inactivation onset time constant FI +10 mV ([1]; 50 μM) [ms] | fast inactivation onset time constant FI −10 mV ([1]; 50 μM) [ms] | fast inactivation onset time constant FI −30 mV ([1]; 50 μM) [ms] | fast inactivation onset time constant FI −50 mV ([1]; 50 μM) [ms] | Peak INa −20 mV ([1]; 50 μM) | % Block −20 mV ([1]; 100 μM) [%] | fast inactivation onset time constant FI +10 mV ([1]; 100 μM) [ms] | fast inactivation onset time constant FI −10 mV ([1]; 100 μM) [ms] | fast inactivation onset time constant FI −30 mV ([1]; 100 μM) [ms] | fast inactivation onset time constant FI −50 mV ([1]; 100 μM) [ms] | Peak INa −20 mV ([1]; 100 μM) | Peak INa Slope [1] | IC50 [1] [µM] | also measured |
| --- | --- | --- | --- | --- | --- | --- | --- | --- | --- | --- | --- | --- | --- | --- | --- | --- | --- | --- | --- | --- | --- |
| O=C1N=c2ccc(C(=O)NCc3ccco3)cc2=NC1=O [ZINC38767171, N-(2-furylmethyl)-2,3-dioxo-quinoxaline-6-carboxamide] | −24.21 | 0.25 ± 0.05 | 0.39 ± 0.06 | 0.71 ± 0.12 | 1.70 ± 0.33 | −0.72 ± 0.06 | −37.89 | 0.34 ± 0.06 | 0.58 ± 0.08 | 0.94 ± 0.10 | 1.79 ± 0.15 | −0.59 ± 0.11 | −38.95 | 0.41 ± 0.11 | 0.60 ± 0.13 | 1.05 ± 0.21 | 1.92 ± 0.38 | −0.58 ± 0.10 | 1.697 | 7.61 | effect on fast inactivation kinetics [1]: significantly decelerated; also recorded: decelerate fast inactivation kinetics, but not significantly; UDI Block Slope [2]: 3.161; IC50 [2]: 0.251 µM |
| C=CCNS(=O)(=O)c1ccc2c(c1)=NC(=O)N=2 [ZINC39699427, N-allyl-2-oxo-benzimidazole-5-sulfonamide] | −34.00 | 0.21 ± 0.03 | 0.31 ± 0.04 | 0.54 ± 0.09 | 1.32 ± 0.24 | −0.66 ± 0.04 | −42.00 | 0.25 ± 0.03 | 0.35 ± 0.04 | 0.63 ± 0.08 | 1.46 ± 0.09 | −0.58 ± 0.06 | −47.00 | 0.26 ± 0.02 | 0.40 ± 0.03 | 0.72 ± 0.04 | 1.61 ± 0.18 | −0.53 ± 0.07 | 0.236 | 6.45 | effect on peak INa [1]: considerably blocked peak INa at low concentrations; effect on use-dependence ([2]; 6 Hz): significantly increases; UDI Block Slope [2]: 4.556; IC50 [2]: 0.196 µM |
| COc1cccc(NS(=O)(=O)c2ccc3c(c2)=NC(=O)N=3)c1 [ZINC64470729, N-(3-methoxyphenyl)-2-oxo-benzimidazole-5-sulfonamide] | −22.68 | 0.26 ± 0.04 | 0.40 ± 0.08 | 0.70 ± 0.14 | 1.67 ± 0.21 | −0.75 ± 0.05 | −25.77 | 0.26 ± 0.02 | 0.40 ± 0.03 | 0.75 ± 0.07 | 1.97 ± 0.29 | −0.72 ± 0.06 | −38.14 | 0.23 ± 0.03 | 0.39 ± 0.02 | 0.76 ± 0.09 | 1.71 ± 0.22 | −0.60 ± 0.26 | 0.389 | 34.6 | effect on fast inactivation kinetics [1]: significantly decelerated; UDI Block Slope [2]: −0.194; IC50 [2]: 40.7 µM |
| CCc1ccccc1NS(=O)(=O)c1ccc2c(c1)=NC(=O)N=2 [ZINC64470737, N-(2-ethylphenyl)-2-oxo-benzimidazole-5-sulfonamide] | −22.45 | 0.31 ± 0.06 | 0.41 ± 0.07 | 0.66 ± 0.09 | 1.37 ± 0.31 | −0.76 ± 0.13 | −40.82 | 0.39 ± 0.02 | 0.64 ± 0.08 | 1.02 ± 0.13 | 1.88 ± 0.27 | −0.58 ± 0.10 | −74.49 | 0.49 ± 0.00 | 0.66 ± 0.00 | 0.96 ± 0.00 | 1.82 ± 0.00 | −0.25 ± 0.00 | 14.37 | 9.86 | effect on fast inactivation kinetics [1]: significantly decelerated; also recorded: decelerates fast inactivation kinetics the most; UDI Block Slope [2]: 0.710; IC50 [2]: 95.1 µM |
| Cc1cc(F)ccc1NS(=O)(=O)c1ccc2c(c1)=NC(=O)N=2 [ZINC64470745, N-(4-fluoro-2-methyl-phenyl)-2-oxo-benzimidazole-5-sulfonamide] | −23.71 | 0.27 ± 0.03 | 0.37 ± 0.03 | 0.66 ± 0.04 | 2.12 ± 0.34 | −0.74 ± 0.06 | −12.37 | 0.25 ± 0.02 | 0.37 ± 0.03 | 0.63 ± 0.05 | 1.75 ± 0.34 | −0.85 ± 0.08 | −24.74 | 0.28 ± 0.04 | 0.45 ± 0.07 | 0.81 ± 0.12 | 1.79 ± 0.20 | −0.73 ± 0.04 | 16.06 | 0.928 | plateau of drug block on sodium current ([1]; attained at concentrations above 10 μM): −20%; effect on fast inactivation kinetics [1]: significantly decelerated; effect on peak INa [1]: blocked peak INa the least; also recorded: does not reduce peak Na at concentrations above 10 μM; UDI Block Slope [2]: 0.289; IC50 [2]: 901 µM |
